Experimental data taken from PubChem BioAssay AID2060507 (Molecular Pharmacology Branch, DTP, NCI, 2025).

Tested on: 519858-162-T-J1-PDC complex spheroid viability
Experiment: Anticancer human tumor 519858-162-T-J1-PDC patient-derived colon adenocarcinoma cell line growth inhibition [GQUAD]
Details: for IC50: curve of first compound; for viability, T/C: stronger effect = lower value
How it was run: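 Multi-cell-type spheroids of tumor cells with HUVEC and mesenchymal stem cells, treated with drug combinations. Concentrations descend in half-log steps from near clinical Cmax, or from 10 microM where Cmax is unknown; viability read-out.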

[1] = second compound 0.0316 µM, first compound 0.0316 µM
[2] = second compound 0.0316 µM, first compound 0.1 µM
[3] = second compound 0.0316 µM, first compound 0.316 µM
[4] = second compound 0.0316 µM, first compound 1 µM
[5] = second compound 0.0316 µM, first compound 3.16 µM
[6] = second compound 0.0316 µM, first compound 10 µM
[7] = second compound 0.1 µM, first compound 0.0316 µM
[8] = second compound 0.1 µM, first compound 0.1 µM
[9] = second compound 0.1 µM, first compound 0.316 µM
[10] = second compound 0.1 µM, first compound 1 µM
[11] = second compound 0.1 µM, first compound 3.16 µM
[12] = second compound 0.1 µM, first compound 10 µM
[13] = second compound 0.316 µM, first compound 0.0316 µM
[14] = second compound 0.316 µM, first compound 0.1 µM
[15] = second compound 0.316 µM, first compound 0.316 µM
[16] = second compound 0.316 µM, first compound 1 µM
[17] = second compound 0.316 µM, first compound 3.16 µM
[18] = second compound 0.316 µM, first compound 10 µM
[19] = second compound 1 µM, first compound 0.0316 µM
[20] = second compound 1 µM, first compound 0.1 µM
[21] = second compound 1 µM, first compound 0.316 µM
[22] = second compound 1 µM, first compound 1 µM
[23] = second compound 1 µM, first compound 3.16 µM
[24] = second compound 1 µM, first compound 10 µM
[25] = second compound 3.16 µM, first compound 0.0316 µM
[26] = second compound 3.16 µM, first compound 0.1 µM
[27] = second compound 3.16 µM, first compound 0.316 µM
[28] = second compound 3.16 µM, first compound 1 µM
[29] = second compound 3.16 µM, first compound 3.16 µM
[30] = second compound 3.16 µM, first compound 10 µM
[31] = second compound 10 µM, first compound 0.0316 µM
[32] = second compound 10 µM, first compound 0.1 µM
[33] = second compound 10 µM, first compound 0.316 µM
[34] = second compound 10 µM, first compound 1 µM
[35] = second compound 10 µM, first compound 3.16 µM
[36] = second compound 10 µM, first compound 10 µM
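Also: spheroids exposed to compounds for 7 days.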
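For viability, T/C in this document: 100% = DMSO vehicle control viability.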

For `C#Cc1c(F)ccc2cc(O)cc(-c3ncc4c(N5CC6CCC(C5)N6)nc(OCC56CCCN5CC(F)C6)nc4c3F)c12` (stereo unspecified) + Cc1cnc(CNC(=O)c2c(=O)c3ccc(N4CCCN(C)CC4)nc3n3c2sc2ccccc23)cn1, the IC50 (second compound 0.0316 µM) was > 10 µM, the IC50 (second compound 0.1 µM) was > 10 µM and the IC50 (second compound 0.316 µM) was 9.62 µM. For the same molecule, the IC50 (second compound 1 µM) was 3.61 µM, the IC50 (second compound 3.16 µM) was 1.27 µM and the IC50 (second compound 10 µM) was < 0.0316 µM. The viability, T/C [1] was 71.2%, the viability, T/C [2] was 81.3% and the viability, T/C [3] was 83.4%. It also gave a viability, T/C [4] of 104%, a viability, T/C [5] of 78.2% and a viability, T/C [6] of 73.9%. It also gave a viability, T/C [7] of 78.8%, a viability, T/C [8] of 89% and a viability, T/C [9] of 61.9%. For the same molecule, the viability, T/C [10] was 84.2%, the viability, T/C [11] was 70.7% and the viability, T/C [12] was 92%. The viability, T/C [13] was 65%, the viability, T/C [14] was 88% and the viability, T/C [15] was 73.3%. It also gave a viability, T/C [16] of 66.6%, a viability, T/C [17] of 83.1% and a viability, T/C [18] of 49.2%. The viability, T/C [19] was 70.1%, the viability, T/C [20] was 56.7% and the viability, T/C [21] was 63.5%. For the same molecule, the viability, T/C [22] was 55.9%, the viability, T/C [23] was 48.8% and the viability, T/C [24] was 46.4%. It also gave a viability, T/C [25] of 46.6%, a viability, T/C [26] of 63.5% and a viability, T/C [27] of 53.4%. The viability, T/C [28] was 53.1%, the viability, T/C [29] was 34.5% and the viability, T/C [30] was 42%. The viability, T/C [31] was 32.5%, the viability, T/C [32] was 55.2% and the viability, T/C [33] was 48.4%. It also gave a viability, T/C [34] of 53.4%, a viability, T/C [35] of 52.4% and a viability, T/C [36] of 41.7%.
`C=CCn1c(=O)c2cnc(Nc3ccc(N4CCN(C)CC4)cc3)nc2n1-c1cccc(C(C)(C)O)n1` + Cc1cnc(CNC(=O)c2c(=O)c3ccc(N4CCCN(C)CC4)nc3n3c2sc2ccccc23)cn1 was tested, and the IC50 (second compound 0.0316 µM) was > 10 µM, the IC50 (second compound 0.1 µM) was > 10 µM and the IC50 (second compound 0.316 µM) was > 10 µM. For the same molecule, the IC50 (second compound 1 µM) was < 0.0316 µM, the IC50 (second compound 3.16 µM) was < 0.0316 µM and the IC50 (second compound 10 µM) was < 0.0316 µM. The viability, T/C [1] was 95.6%, the viability, T/C [2] was 82.6% and the viability, T/C [3] was 94.3%. For the same molecule, the viability, T/C [4] was 66.1%, the viability, T/C [5] was 70.4% and the viability, T/C [6] was 76%. It also gave a viability, T/C [7] of 81.8%, a viability, T/C [8] of 96.9% and a viability, T/C [9] of 58.5%. It also gave a viability, T/C [10] of 92%, a viability, T/C [11] of 66.8% and a viability, T/C [12] of 69.7%. The viability, T/C [13] was 51.6%, the viability, T/C [14] was 73% and the viability, T/C [15] was 49.8%. The viability, T/C [16] was 64.2%, the viability, T/C [17] was 75.8% and the viability, T/C [18] was 64.3%. It also gave a viability, T/C [19] of 60%, a viability, T/C [20] of 48.2% and a viability, T/C [21] of 38.8%. The viability, T/C [22] was 42.4%, the viability, T/C [23] was 73.6% and the viability, T/C [24] was 68%. For the same molecule, the viability, T/C [25] was 46.3%, the viability, T/C [26] was 51.4% and the viability, T/C [27] was 53.8%. It also gave a viability, T/C [28] of 45.5%, a viability, T/C [29] of 49.5% and a viability, T/C [30] of 53.4%. It also gave a viability, T/C [31] of 40%, a viability, T/C [32] of 55.3% and a viability, T/C [33] of 51.6%. For the same molecule, the viability, T/C [34] was 40.1%, the viability, T/C [35] was 32.3% and the viability, T/C [36] was 39.4%.
In the case of `CC(=O)O[C@H]1C(=O)[C@@]2(C)[C@H]([C@H](OC(=O)c3ccccc3)[C@]3(O)C[C@H](OC(=O)[C@H](O)[C@@H](NC(=O)c4ccccc4)c4ccccc4)C(C)=C1C3(C)C)[C@]1(OC(C)=O)CO[C@@H]1C[C@@H]2O` + Cc1cnc(CNC(=O)c2c(=O)c3ccc(N4CCCN(C)CC4)nc3n3c2sc2ccccc23)cn1, the IC50 (second compound 0.0316 µM) is reported as > 10 µM, the IC50 (second compound 0.1 µM) is reported as > 10 µM and the IC50 (second compound 0.316 µM) is reported as > 10 µM. For the same molecule, the IC50 (second compound 1 µM) was > 10 µM, the IC50 (second compound 3.16 µM) was > 10 µM and the IC50 (second compound 10 µM) was < 0.0316 µM. For the same molecule, the viability, T/C [1] was 78.7%, the viability, T/C [2] was 93.7% and the viability, T/C [3] was 72.2%. It also gave a viability, T/C [4] of 75.3%, a viability, T/C [5] of 92.5% and a viability, T/C [6] of 93.3%. For the same molecule, the viability, T/C [7] was 104%, the viability, T/C [8] was 90.9% and the viability, T/C [9] was 74.8%. It also gave a viability, T/C [10] of 91.5%, a viability, T/C [11] of 103% and a viability, T/C [12] of 67.8%. The viability, T/C [13] was 65.2%, the viability, T/C [14] was 57.1% and the viability, T/C [15] was 60.6%. For the same molecule, the viability, T/C [16] was 68.9%, the viability, T/C [17] was 70.9% and the viability, T/C [18] was 73.4%. It also gave a viability, T/C [19] of 55.7%, a viability, T/C [20] of 70.9% and a viability, T/C [21] of 48.5%. The viability, T/C [22] was 58.6%, the viability, T/C [23] was 67.1% and the viability, T/C [24] was 56.1%. The viability, T/C [25] was 59.7%, the viability, T/C [26] was 67.7% and the viability, T/C [27] was 45.9%. The viability, T/C [28] was 66.8%, the viability, T/C [29] was 51.4% and the viability, T/C [30] was 59.9%. The viability, T/C [31] was 26.7%, the viability, T/C [32] was 44.4% and the viability, T/C [33] was 38.7%. It also gave a viability, T/C [34] of 58.5%, a viability, T/C [35] of 48.9% and a viability, T/C [36] of 69.6%.
